Test results published in publication PMC12459020, “Chemical Probes that Target a Dissociative LuxR-Type Quorum Sensing Receptor in Gram-Negative Bacteria” (ACS Chemical Biology, 2025).
Where two headings read alike, the source gives them in different places.

Experiments:
EsaR [1] = biological target: T1, EsaR (Pantoea stewartii subsp. stewartii, UniProt P54293); experiment: cell-based; settings: for activation at 100 µM / inhibition at 100 µM: 3.5 h; for activation at 100 µM: read-out: EsaR-repressed (pesaR) [%] agonism; for inhibition at 100 µM: read-out: EsaR-repressed (pesaR) antagonism
T1 construct: expressed in transfected cells; host or cells: E. coli JLD271 (K12 ΔsdiA), arabinose-induced pJN105-esaR
Text: (§1) EsaR transcriptional activation and repression were examined using E. coli and P. stewartii reporters (strains and plasmids listed in Table S1; see Methods section for assay details). […] We constructed reporters in E. coli based on previously reported EsaR reporters (Table S1). Each strain contained an EsaR expression plasmid (pJN105-esaR) and a reporter plasmid with either an EsaR-activated promoter (pesaS) or an EsaR-repressed promoter (pesaR) upstream of luxABCDE or GFP.
(§2) Gibson assembly was used to create all constructs. Plasmid pJN105-esaR was created by amplifying esaR from pAC-esaR and inserting it into pJN105. pesaSlux was created by inserting pesaS, amplified from pPesaR-AC:gfp, into the pCS-pesaRlux backbone. The pesaR promoter was amplified from pCS-pesaRlux and inserted into the pPesaR-AC:gfp backbone to create pesaR:GFP. P. stewartii reporter strains were created by transforming pesaR:GFP or pPesaR-AC:gfp into ESN51 by conjugation using E. coli S17 λpir as the donor strain. See SI for details of E. coli ExpR2 reporter construction.
(§3) Overnight cultures were diluted 1:10 in LB medium with appropriate antibiotics and grown at 37 °C (200 rpm) to an OD600 of 0.22–0.27 before induction with 4 mg mL^–1 arabinose. OD600 was measured by placing 200 μL of culture into a 96-well plate and reading optical density using the BioTek Synergy 2 plate reader. Assays were performed in technical triplicate in clear-bottom, white and clear-bottom, black 96-well microtiter plates (Corning Costar 3903 and 3904) for luminescence and fluorescence reporters, respectively. Compounds were dissolved in DMSO, and 2 μL of this stock, or DMSO as a negative control, was added to each well prior to adding 198 μL of induced culture. Plates were incubated at 37 °C (200 rpm) for 3.5 h. Each well was mixed by pipetting before reading OD600 and either luminescence or fluorescence. Single-point screens were performed with one or two biological replicates, and all dose–response curves were performed in biological triplicate. EC50 values were calculated based on a nonlinear regression of log(concentration) vs response (three parameters) using GraphPad Prism 9 software.

EsaR [2] = biological target: T1, EsaR; experiment: cell-based; settings: for activation at 100 µM / inhibition at 100 µM: 3.5 h; for activation at 100 µM: read-out: EsaR-activated (pesaS) [%] agonism; for inhibition at 100 µM: read-out: EsaR-activated (pesaS) antagonism; for EsaR agonism, in words: E. coli EsaR reporters, primary screen at 100 μM
Text: as §1, §2, §3

ExpR2 [3] = biological target: ExpR2 (Pectobacterium versatile, UniProt Q1A4U9); experiment: E. coli GFP reporter with ExpR2-activated promoter (prsmA); type: cell-based, Pectobacterium versatile Ecc71
Text: One difference between our prior study in ExpR1/2 and that reported here in EsaR is that the former relied on QS-controlled phenotypes in P. versatile Ecc71 (i.e., cellulase and pectate lyase activity) to measure compound activity, unlike the heterologous transcriptional reporters used for EsaR. To further investigate the differences in antagonism assay data observed between EsaR and ExpR1/2, an E. coli reporter was created with an ExpR2 protein production plasmid (pJN105-expR2) and a reporter plasmid with an ExpR2-activated promoter (prsmA) controlling GFP (see Methods section). […] We return to possible explanations for the differences observed between the ExpR2 phenotypic assays and transcriptional reporters below.
Supporting Information — Stoutland et al.
Additional experimental methods.
Plasmid and reporter strain construction for ExpR2 reporters
Gibson assembly was used to create all constructs. Strains, plasmids and primers are listed in Ta b l es S1 and S2. Plasmid pJN105-expR2 was created by amplifying expR2 from Pectobacterium versatile Ecc71 genomic DNA and inserting it into pJN105, amplified from pJN105-esaR. […] E. coli reporter strains were created by transforming pJN105-expR2 and prsmA:GFP into electrocompetent E. coli JLD271.
E. coli ExpR2 reporter assay
Single colonies of the reporter strain were used to inoculate LB medium supplemented with appropriate antibiotics, and these cultures were grown overnight at 37 °C with shaking at 200 rpm.
Overnight cultures were diluted 1:10 in LB medium with appropriate antibiotics and grown at 37 °C to an OD600 of 0.22–0.27 before induction with 0.4 mg/mL arabinose. Arabinose concentration was optimized to maximize dynamic range of reporter data. Compounds were dissolved in DMSO, and 2 µL of this stock, or DMSO as a negative control, was added to each well of a clear-bottom, black 96-well plate prior to adding 198 µL of induced culture. Plates were incubated at 37 °C with shaking at 200 rpm for 3.5 hr. Assays were performed in technical and biological triplicate. Each well was mixed by pipetting before reading fluorescence and OD600. EC50 values were calculated based on a nonlinear regression of log(concentration) vs. response - variable slope (four parameters) using GraphPad Prism 9 software.

LuxR = settings: cited from earlier work; for LuxR antagonism: 5 µM compound against 5 µM OHHL, negative values indicate potential activators, ref 6 (SI; Palmer et al., 2011); for LuxR [%] (agonism, activation): compounds at 200 μM, luminescence in V. fischeri ES114 (ΔluxI), ref Palmer et al., 2011 (main ref 44, SI ref 6)
ExpR1 = settings: cited from earlier work; for ExpR1 antagonism: 5 µM compound against 5 µM OHHL, negative values indicate potential activators, ref 6 (SI; Palmer et al., 2011); for ExpR1 [%] (agonism, activation): compounds at 200 μM, cellulase activity in P. versatile AC5117, ref Palmer et al., 2011 (main ref 44, SI ref 6)
ExpR2 [4] = settings: cited from earlier work; for ExpR2 antagonism (percent inhibition): 5 µM compound against 5 µM OHHL, negative values indicate potential activators; for ExpR2 antagonism (percent inhibition) / IC50 / EC50: ref 6 (SI; Palmer et al., 2011); for ExpR2 [%] (agonism, percent activation): compounds at 200 μM, cellulase activity in P. versatile AC5099, ref Palmer et al., 2011 (main ref 44, SI ref 6); for IC50 / EC50: previously reported phenotypic reporter data
[5] = system: P. stewartii ΔesaI (ESN51); experiment: Mucoidy (exopolysaccharide) phenotypic assay on CPG agar; type: cell-based, Pantoea stewartii
Text: In P. stewartii, EsaR regulates the production of the exopolysaccharide stewartan, which clogs the xylem of infected plants and leads to the wilt and lesions characteristic of Stewart’s wilt. EsaR binds directly to the rcsA promoter to repress transcription at low cell density, and when this repression is relieved at high cell density, RcsA contributes to activation of the cps gene cluster, which encodes the stewartan biosynthetic pathway. Exopolysaccharide production can be visualized by the growth of mucoid colonies on casamino acid-peptone-glucose (CPG) agar plates, and this phenotypic assay is commonly used to evaluate EsaR-mediated QS in P. stewartii. , To investigate the ability of the synthetic EsaR agonists uncovered here to regulate a QS-controlled phenotype in P. stewartii, selected compounds were tested for their ability to induce mucoidy in the P. stewartii (ΔesaI) strain, ESN51 (Figure ).
P. stewartii ΔesaI (ESN51) was grown on Casamino Peptone Glucose (CPG) agar (1 g/L casamino acids, 10 g/L peptone, 10 g/L glucose, 17 g/L agar) supplemented with a 1:1000 dilution of compound stocks or DMSO. Plates were incubated at 28 °C for 2 days without shaking before imaging with a smartphone camera (Apple iPhone X). Images are representative of at least two biological replicates.

[6] = 10 μM in CPG agar, ESN51, 2 days at 28 °C
[7] = 100 μM in CPG agar, ESN51, 2 days at 28 °C
[8] = concentration not given, CPG agar, ESN51

Chain of ExpR2 (Pectobacterium versatile, UniProt Q1A4U9) (Q1A4U9 entry or part of it): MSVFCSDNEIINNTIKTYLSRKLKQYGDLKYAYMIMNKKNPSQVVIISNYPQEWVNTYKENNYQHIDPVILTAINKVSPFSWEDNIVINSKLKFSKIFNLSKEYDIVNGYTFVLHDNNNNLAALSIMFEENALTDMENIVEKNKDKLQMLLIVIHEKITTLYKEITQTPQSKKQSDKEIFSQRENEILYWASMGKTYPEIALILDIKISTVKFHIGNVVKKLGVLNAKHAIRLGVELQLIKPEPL
T1 sequence (P54293 whole entry): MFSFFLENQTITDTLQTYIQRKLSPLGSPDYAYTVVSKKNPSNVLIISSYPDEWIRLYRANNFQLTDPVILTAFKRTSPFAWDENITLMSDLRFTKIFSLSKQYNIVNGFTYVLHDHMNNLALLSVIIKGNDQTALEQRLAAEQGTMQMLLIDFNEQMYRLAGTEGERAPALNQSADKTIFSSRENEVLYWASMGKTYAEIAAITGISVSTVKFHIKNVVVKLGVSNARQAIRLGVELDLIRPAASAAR

Row | SMILES | activation at 100 µM (EsaR [1]) | inhibition at 100 µM (EsaR [1]) | activation at 100 µM (EsaR [2]) | inhibition at 100 µM (EsaR [2]) | LuxR antagonism (LuxR) | LuxR [%] (agonism, activation) (LuxR) | ExpR1 antagonism (ExpR1) | ExpR1 [%] (agonism, activation) (ExpR1) | ExpR2 antagonism (percent inhibition) (ExpR2 [4]) | ExpR2 [%] (agonism, percent activation) (ExpR2 [4]) | induction of mucoidy [5, 6] | other results
1 | O=C(CCc1ccc(Br)cc1)N[C@H]1CCOC1=O [B7, 4-Br phenylpropanoyl HL] | 66% | -36% | 56% | -50% | 80% | 2% | 78% | 3% | 66% | 8% | – | EsaR agonism, in words (EsaR [2]): agonized EsaR; ExpR2 agonism, in words (ExpR2 [3]; E. coli ExpR2 GFP reporter): behaved as an agonist; IC50 (ExpR2 [4]): 2750 nM
2 | O=C1OCC[C@@H]1NS(=O)(=O)c1ccccc1 [GAF 57] | – | – | – | – | – | – | – | – | – | – | not at 10 μM | induction of mucoidy [5, 7]: induced mucoidy
3 | O=C1OCC[C@@H]1NS(=O)(=O)c1cccc(Cl)c1 [GAF 28] | – | – | – | – | – | – | – | – | – | – | induced mucoidy | EC50 (EsaR [1]): 2200 nM; EC50 (EsaR [2]): 2200 nM
4 | O=C(Cc1cccc([N+](=O)[O-])c1)N[C@H]1CCOC1=O [C14, 3-NO2 PHL] | 22% | -3% | 62% | -56% | -18% | 130% | -15% | 115% | -4% | 103% | – | EC50 (EsaR [1]): ≥ 98000 nM; EC50 (EsaR [2]): ≥ 68000 nM; EsaR agonism, in words (EsaR [2]): moderate activator; EC50 (ExpR2 [3]): 160 nM; ExpR2 agonism, in words (ExpR2 [3]; E. coli ExpR2 GFP reporter): acted as agonists; fold less potent than OHHL in ExpR2 E. coli reporter (ExpR2 [3]; E. coli ExpR2 GFP reporter): approximately 40 fold; EC50 (ExpR2 [4]): 500 nM
5 | CCCC(=O)CC(=O)N[C@H]1CCOC1=O [OHHL, 3-oxo-hexanoyl HL, reference compound] | 100% | 0% | 100% | 0% | 0% | 100% | 0% | 100% | 0% | 100% | smooth | EC50 (ExpR2 [3]): 3.9 nM; ExpR2 agonism, in words (ExpR2 [3]; E. coli ExpR2 GFP reporter): acted as agonists; EC50 (ExpR2 [4]): 2000 nM
6 | CCCCCC(O)CC(=O)N[C@H]1CCOC1=O (some centres unmarked) [H2] | – | – | – | – | – | – | – | – | – | – | not at 10 μM | fold less potent than OOHL in EsaR (EsaR [2]; E. coli EsaR reporter EC50 values): ~20 fold; induction of mucoidy [5, 7]: induced mucoidy
7 | O=C1OCC[C@H]1NS(=O)(=O)c1ccc(Cl)c(Cl)c1 [GAF 55] | – | – | – | – | – | – | – | – | – | – | – | EsaR agonism at 100 μM (bound stated in text) (EsaR [2]; 100 μM, E. coli EsaR reporter): less than 50%; induction of mucoidy [5, 8]: did not induce mucoidy
8 | CCCCCCCCCCCC(=O)N[C@H]1CCOC1=O [dDHL, reference compound] | 35% | -27% | 45% | -63% | 73% | 1% | 77% | 0% | 62% | 31% | – | –
9 | O=C(Cc1ccc(Br)cc1)N[C@H]1CCOC1=O [K3] | 18% | -76% | 9% | -24% | 79% | 3% | 71% | 4% | 62% | 25% | – | IC50 (ExpR2 [4]): 850 nM
10 | O=C(Cc1ccccc1Cl)N[C@H]1CCOC1=O [C7] | 5% | -26% | 10% | 1% | 53% | 6% | 57% | 9% | 41% | 28% | – | –
11 | CCCCCCS(=O)(=O)N[C@H]1CCOC1=O [A11] | – | – | – | – | – | – | – | – | – | – | – | induction of mucoidy [5, 8]: did not induce mucoidy
